Experimental data reported in the NIST ThermoML archive (doi:10.1021/je050195w).
± gives the expanded uncertainty stated by the source.

Details: Crystal; DTA

Question: With `CC(=O)[C@@]12O[C@@H]1C[C@H]1[C@@H]3CCC4=CC(=O)CC[C@]4(C)[C@H]3CC[C@@]12C` [16α,17-epoxypregn-4-ene-3,20-dione] as the compound, how does the Normal melting temperature read?
Answer: 205.50 ± 1.1 °C
